Structures are written as SMILES. Converted amounts (≈) assume the structure as drawn.

The test system of the assay is Streptococcus pneumoniae. As to the kind of experiment: Minimum inhibitory concentration (MIC) by agar dilution. The note with it: in vitro, agar dilution (NCCLS 1993), Streptococcus pneumoniae strain SPNE 9912; read-out: Antibacterial Activity Minimum Inhibitory Concentration SPNE 9912. In kind it is cell-based. The text has this:
The oxazolidinone antibacterial agents of this invention have useful activity against a variety of organisms. The in vitro activity of compounds of this invention can be assessed by standard testing procedures such as the determination of minimum inhibitory concentration (MIC) by agar dilution as described in “Approved Standard. Methods for Dilution Antimicrobial Susceptibility Tests for Bacteria That Grow Aerobically”, 3rd. ed., published 1993 by the National Committee for Clinical Laboratory Standards, Villanova, Pa. USA.
(In general: In agar dilution, organisms are placed on agar that contains the substance at set levels.)
As for `CC(=S)NC[C@H]1CN(c2ccc3c(c2)CS(=O)(=O)CC3)C(=O)O1` [Example 16, (+)-N-[[(5S)-3-(3,4-Dihydro-2,2-dioxido-1H-2-benzothiopyran-7-yl)-2-oxo-5-oxazolidinyl]methyl]ethanethioamide], the MIC amounted to 1 mg/L (≈ 2.82 µM).

`CC(=O)NC[C@H]1CN(c2ccc3c(c2)CCN(c2nnc(NC=O)s2)CC3)C(=O)O1` [Example 45, N-[((5S)-3-{3-[5-(Formylamino)-1,3,4-thiadiazol-2-yl]-1,2,4,5-tetrahydro-1H-3-benzazepin-7-yl}-2-oxo-1,3-oxazolidin-5-yl)methyl]acetamide]: the MIC was determined as 0.5 mg/L (≈ 1.16 µM).

On to `CC(=O)NC[C@H]1CN(c2ccc3c(c2)CCCN(C(=O)CO)C3)C(=O)O1` [Example 37, N-{[(5S)-3-(2-Glycoloyl-1,3,4,5-tetrahydro-1H-3-benzazepin-7-yl)-2-oxo-1,3-oxazolidin-5-yl]methyl}acetamide], for which the MIC stood at 1 mg/L (≈ 2.77 µM).

As for `CC(=O)NC[C@H]1CN(c2ccc3c(c2)CCN(C=O)CC3)C(=O)O1` [Example 23, N-{[(5S)-3-(3-Formyl-1,2,4,5-tetrahydro-1H-3-benzazepin-7-yl)-2-oxo-1,3-oxazolidin-5-yl]methyl}acetamide], the MIC is less than 0.5 mg/L.

Turning to `CC(=O)NC[C@H]1CN(c2ccc3c(c2)CCN(c2nnc(N)s2)CC3)C(=O)O1` [Example 42, N-({(5S)-3-[3-(5-Amino-1,3,4-thiadiazol-2-yl)-1,2,4,5-tetrahydro-1H-3-benzazepin-7-yl]-2-oxo-1,3-oxazolidin-5-yl}methyl)acetamide], the MIC was found to be 0.5 mg/L (≈ 1.24 µM).

For the compound `CC(=O)NC[C@H]1CN(c2ccc3c(c2)CCSCC3)C(=O)O1` [Example 47, N-[[(5S)-2-Oxo-3-(1,2,4,5-tetrahydro-3-benzothiepin-7-yl)-5-oxazolidinyl]methyl]acetamide], the MIC turned out to be 2 mg/L (≈ 6.24 µM).

For `CC(=S)NC[C@H]1CN(c2ccc3c(c2)CCOC3)C(=O)O1` [Example 9, (+)-N-[[(5S)-3-(3,4-Dihydro-1H-2-benzopyran-6-yl)-2-oxo-5-oxazolidinyl]methyl]ethanethioamide], the MIC stood at 1 mg/L (≈ 3.26 µM).

As to `CC(=O)NC[C@H]1CN(c2ccc3c(c2)CCOC3)C(=O)O1` [Example 8, (−)-N-[[(5S)-3-(3,4-Dihydro-1H-2-benzopyran-6-yl)-2-oxo-5-oxazolidinyl]methyl]acetamide], the MIC was 4 mg/L (≈ 13.8 µM).

For `CC(=S)NC[C@H]1CN(c2ccc3c(c2)CSCC3)C(=O)O1` [Example 15, (+)-N-[[(5S)-3-(3,4-Dihydro-1H-2-benzothiopyran-7-yl)-2-oxo-5-oxazolidinyl]methyl]ethanethioamide], the MIC amounted to 0.125 mg/L (≈ 0.388 µM).

For `CC(=O)NC[C@H]1CN(c2ccc3c(c2)CCCCN3C=O)C(=O)O1` [Example 20, N-{[(5S)-3-(1-Formyl-2,3,4,5-tetrahydro-1H-1-benzazepin-7-yl)-2-oxo-1,3-oxazolidin-5-yl]methyl}acetamide], the MIC is less than 0.5 mg/L.

For `CC(=S)NC[C@H]1CN(c2ccc3c(c2)CCS(=O)(=O)CC3)C(=O)O1` [Example 50, N-[[(5S)-2-Oxo-3-(1,2,4,5-tetrahydro-3,3-dioxido-3-benzothiepin-7-yl)-5-oxazolidinyl]methyl]ethanethioamide], the MIC was 1 mg/L (≈ 2.71 µM).

Regarding `CC(=O)NC[C@H]1CN(c2ccc3c(c2)CCN(c2nnc(C)s2)CC3)C(=O)O1` [Example 44, N-({(5S)-3-[3-(5-Methyl-1,3,4-thiadiazol-2-yl)-1,2,4,5-tetrahydro-1H-3-benzazepin-7-yl]-2-oxo-1,3-oxazolidin-5-yl}methyl)acetamide], the MIC is 1 mg/L (≈ 2.49 µM).

For the compound `CC(=O)CCC(=O)N1CCc2ccc(N3C[C@H](CNC(C)=O)OC3=O)cc2CC1` [Example 34], the MIC was found to be 2 mg/L (≈ 4.98 µM).

Turning to `COC(=O)N1CCc2ccc(N3C[C@H](CNC(C)=O)OC3=O)cc2CC1` [Example 26, Methyl 7-{(5S)-5-[(acetylamino)methyl]-2-oxo-1,3-oxazolidin-3-yl}-1,2,4,5-tetrahydro-3H-3-benzazepine-3-carboxylate], the MIC came to 1 mg/L (≈ 2.77 µM).

For the compound `COC(=O)N1CCc2cc(N3C[C@H](CNC(C)=S)OC3=O)ccc2C1` [Example 5, (+)-Methyl 6-[(5S)-5-[(ethanethioylamino)methyl]-2-oxo-3-oxazolidinyl]-3,4-dihydro-2(1H)-isoquinolinecarboxylate], the MIC is less than 0.5 mg/L.

Turning to `CC(=O)NC[C@H]1CN(c2ccc3c(c2)CCS(=O)(=O)CC3)C(=O)O1` [Example 48, N-[[(5S)-2-Oxo-3-(1,2,4,5-tetrahydro-3,3-dioxido-3-benzothiepin-7-yl)-5-oxazolidinyl]methyl]acetamide], the MIC worked out at 8 mg/L (≈ 22.7 µM).

For `CC(=O)NC[C@H]1CN(c2ccc3c(c2)CCN(C(=O)COC(C)=O)C3)C(=O)O1` [Example 3, (−)-N-[[(5S)-3-[2-[(Acetyloxy)acetyl]-1,2,3,4-tetrahydro-6-isoquinolinyl]-2-oxo-5-oxazolidinyl]methyl]acetamide], the MIC worked out at 1 mg/L (≈ 2.57 µM).

For `CC(=S)NC[C@H]1CN(c2ccc3c(c2)CN(C=O)CC3)C(=O)O1` [Example 18, (+)-N-[[(5S)-3-[2-Formyl-1,2,3,4-tetrahydro-7-isoquinolinyl]-2-oxo-5-oxazolidinyl]methyl]ethanethioamide], the MIC was 1 mg/L (≈ 3 µM).

`CC(=O)NC[C@H]1CN(c2ccc3c(c2)C[S+]([O-])CC3)C(=O)O1` (stereo partly drawn) [Example 17, N-[[(5S)-3-(3,4-Dihydro-2-oxido-1H-2-benzothiopyran-7-yl)-2-oxo-5-oxazolidinyl]methyl]acetamide]: the MIC was 2 mg/L (≈ 6.2 µM).

Turning to `CC(=O)NC[C@H]1CN(c2ccc3c(c2)CCN(C(=O)CO)CC3)C(=O)O1` [Example 24, N-{[(55)-3-(3-Glycoloyl-1,2,4,5-tetrahydro-1H-3-benzazepin-7-yl)-2-oxo-1,3-oxazolidin-5-yl]methyl}acetamide], the MIC was less than 0.5 mg/L.

Regarding `CC(=O)NC[C@H]1CN(c2ccc3c(c2)CCN(C(=O)Oc2ccccc2)CC3)C(=O)O1` [Example 29, Phenyl 7-{(5S)-5-[(acetylamino)methyl]-2-oxo-1,3-oxazolidin-3-yl}-1,2,4,5-tetrahydro-3H-3-benzazepine-3-carboxylate], the MIC amounted to 2 mg/L (≈ 4.72 µM).

As for `CC(=S)NC[C@H]1CN(c2ccc3c(c2)CN(C(=O)CO)CC3)C(=O)O1` [Example 19, (+)-N-[[(5S)-3-[2-[(Hydroxy)acetyl]-1,2,3,4-tetrahydro-7-isoquinolinyl]-2-oxo-5-oxazolidinyl]methyl]ethanethioamide], the MIC was found to be 2 mg/L (≈ 5.5 µM).

Consider `CC(=O)NC[C@H]1CN(c2ccc3c(c2)CSCC3)C(=O)O1` [Example 14, (−)-N-[[(5S)-3-(3,4-Dihydro-1H-2-benzothiopyran-7-yl)-2-oxo-5-oxazolidinyl]methyl]acetamide], for which the MIC was found to be 0.5 mg/L (≈ 1.63 µM).

Turning to `CC(=S)NC[C@H]1CN(c2ccc3c(c2)CCN(C(=O)CO)C3)C(=O)O1` [Example 7, (+)-N-[[(5S)-3-[2-[(Hydroxy)acetyl]-1,2,3,4-tetrahydro-6-isoquinolinyl]-2-oxo-5-oxazolidinyl]methyl]ethanethioamide], the MIC is less than 0.5 mg/L.

Turning to `CC(=O)NC[C@H]1CN(c2ccc3c(c2)CCCN(C=O)C3)C(=O)O1` [Example 36, N-{[(5S)-3-(2-Formyl-1,3,4,5-tetrahydro-1H-2-benzazepin-7-yl)-2-oxo-1,3-oxazolidin-5-yl]methyl}acetamide], the MIC was less than 0.5 mg/L.

In the case of `CC(=O)NC[C@H]1CN(c2ccc3c(c2)CCN(C(=O)OCc2ccccc2)CC3)C(=O)O1` [Example 22], the MIC is less than 0.5 mg/L.

With `CC(=S)NC[C@H]1CN(c2ccc3c(c2)CCCCN3C=O)C(=O)O1` [Example 21, N-{[(5S)-3-(1-Formyl-2,3,4,5-tetrahydro-1H-1-benzazepin-7-yl)-2-oxo-1,3-oxazolidin-5-yl]methyl}ethanethioamide], the MIC is less than 0.5 mg/L.

With `CC(=S)NC[C@H]1CN(c2ccc3c(c2)CCSCC3)C(=O)O1` [Example 49, N-[[(5S)-2-Oxo-3-(1,2,4,5-tetrahydro-3-benzothiepin-7-yl)-5-oxazolidinyl]methyl]ethanethioamide], the MIC was found to be 0.5 mg/L (≈ 1.49 µM).

Consider `CC(=O)NC[C@H]1CN(c2ccc3c(c2)CCN(C(C)=O)CC3)C(=O)O1` [Example 25, N-{[(5S)-3-(3-Acetyl-1,2,4,5-tetrahydro-1H-3-benzazepin-7-yl)-2-oxo-1,3-oxazolidin-5-yl]methyl}acetamide], for which the MIC is 1 mg/L (≈ 2.9 µM).

In the case of `CC(=S)NC[C@H]1CN(c2ccc3c(c2)CCN(C=O)C3)C(=O)O1` [Example 6, (+)-N-[[(5S)-3-[2-Formyl-1,2,3,4-tetrahydro-6-isoquinolinyl]-2-oxo-5-oxazolidinyl]methyl]ethanethioamide], the MIC was less than 0.5 mg/L.

As for `CC(=O)NC[C@H]1CN(c2ccc3c(c2)CCN(C(=O)Cc2ccccc2)CC3)C(=O)O1` [Example 30, N-[((5S)-3-{3-(Phenyl)acetyl-1,2,4,5-tetrahydro-1H-3-benzazepin-7-yl}-2-oxo-1,3-oxazolidin-5-yl)methyl]acetamide], the MIC amounted to 1 mg/L (≈ 2.37 µM).

Consider `CC(=S)NC[C@H]1CN(c2ccc3c(c2)CCN(C(=O)CO)CC3)C(=O)O1` [Example 41, N-{[(5S)-3-(3-Glycoloyl-1,2,4,5-tetrahydro-1H-3-benzazepin-7-yl)-2-oxo-1,3-oxazolidin-5-yl]methyl}ethanethioamide], for which the MIC is 0.125 mg/L (≈ 0.331 µM).

Take `CC(=O)CCCC(=O)N1CCc2ccc(N3C[C@H](CNC(C)=O)OC3=O)cc2CC1` [Example 35, N-({(5S)-2-Oxo-3-[3-(5-oxohexanoyl)-1,2,4,5-tetrahydro-1H-3-benzazepin-7-yl]-1,3-oxazolidin-5-yl}methyl)acetamide]: the MIC came to 1 mg/L (≈ 2.41 µM).

As for `CC(=O)NC[C@H]1CN(c2ccc3c(c2)CCN(C(=O)CO)C3)C(=O)O1` [Example 4, (−)-N-[[(5S)-3-[2-[(Hydroxy)acetyl]-1,2,3,4-tetrahydro-6-isoquinolinyl]-2-oxo-5-oxazolidinyl]methyl]acetamide], the MIC worked out at 1 mg/L (≈ 2.88 µM).

Values taken from US6972286B2, “Oxazolidinones having a benzannulated 6- or 7-membered heterocycle” (Pharmacia and Upjohn Company, priority 2000, dated 2005).
